“Also recorded” adds a separate entry of the source.
Tests used:
[1] = target: T1, Ack1 (Homo sapiens, UniProt Q07912); experiment: Ack1 dose-response radiometric peptide kinase assay; format: biochemical
Description: 40 ng of recombinant Ack1 was incubated with saturating quantities of peptide substrate ([…] (SEQ ID NO:1) and in the presence of a compound in Ack1 kinase buffer (20 mM Tris pH 7.4, 10 mM MgCl2, 0.1 mM NaVO4, 0.5 mM dithiothreitol). [^32P]-γ-ATP was added in a total concentration of 10 μM ATP to initiate the reaction. Following 30 minute incubation at 30° C., phosphorylated peptide substrate was captured by spotting the reaction on P81 cationic filter paper and unincorporated [^32P]-γ-ATP was removed by washing in a solution of phosphoric acid. Phosphorylated peptide was then quantified by autoradiography or by Phosphorlmager analysis or by scintillation counting.
(§1) Thus, this Example proposed derivatives of compound 1 that inhibit Ack1 in the cellular context while retaining its target specificity.
Target sequence in this assay (Q07912 whole entry): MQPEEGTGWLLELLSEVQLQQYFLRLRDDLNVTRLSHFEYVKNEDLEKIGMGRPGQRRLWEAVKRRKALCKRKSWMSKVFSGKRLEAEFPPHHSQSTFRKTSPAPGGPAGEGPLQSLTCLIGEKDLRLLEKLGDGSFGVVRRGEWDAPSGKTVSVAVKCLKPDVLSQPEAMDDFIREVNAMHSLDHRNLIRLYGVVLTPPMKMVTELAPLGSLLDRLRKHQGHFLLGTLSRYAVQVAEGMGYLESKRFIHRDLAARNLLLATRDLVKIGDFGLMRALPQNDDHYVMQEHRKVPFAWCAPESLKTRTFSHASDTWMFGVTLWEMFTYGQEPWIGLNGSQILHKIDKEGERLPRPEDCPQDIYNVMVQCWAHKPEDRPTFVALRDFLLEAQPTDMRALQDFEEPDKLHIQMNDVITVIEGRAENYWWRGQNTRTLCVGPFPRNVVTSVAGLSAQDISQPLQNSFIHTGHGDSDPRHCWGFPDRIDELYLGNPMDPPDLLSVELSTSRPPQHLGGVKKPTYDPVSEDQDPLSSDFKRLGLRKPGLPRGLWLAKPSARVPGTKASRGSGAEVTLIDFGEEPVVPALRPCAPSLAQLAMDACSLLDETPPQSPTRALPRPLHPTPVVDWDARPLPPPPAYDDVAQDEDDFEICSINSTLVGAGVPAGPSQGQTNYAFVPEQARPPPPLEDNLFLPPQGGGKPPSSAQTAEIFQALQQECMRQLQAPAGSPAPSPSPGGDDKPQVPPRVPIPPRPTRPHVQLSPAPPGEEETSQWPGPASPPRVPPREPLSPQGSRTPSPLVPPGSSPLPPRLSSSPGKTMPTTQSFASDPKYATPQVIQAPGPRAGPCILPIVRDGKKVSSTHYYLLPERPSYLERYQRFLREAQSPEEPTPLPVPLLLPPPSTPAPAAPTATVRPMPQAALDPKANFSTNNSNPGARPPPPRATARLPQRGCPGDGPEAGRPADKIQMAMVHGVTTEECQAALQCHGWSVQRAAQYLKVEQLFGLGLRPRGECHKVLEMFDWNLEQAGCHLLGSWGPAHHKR

[2] = test system: Ack1 autophosphorylation (Tyr284); experiment: Ack1 autophosphorylation in HEK293 cells (Western blot phospho-Ack1); format: cell-based; settings: HEK293 cells expressing Ack1
Text: as §1

[3] = target: Aurora B (Homo sapiens, UniProt Q96GD4); experiment: Kinase panel screen at 500 nM: Aurora B; format: biochemical; settings: 500 nM compound, 10 μM ATP
Aurora B, sequence (Q96GD4 whole entry): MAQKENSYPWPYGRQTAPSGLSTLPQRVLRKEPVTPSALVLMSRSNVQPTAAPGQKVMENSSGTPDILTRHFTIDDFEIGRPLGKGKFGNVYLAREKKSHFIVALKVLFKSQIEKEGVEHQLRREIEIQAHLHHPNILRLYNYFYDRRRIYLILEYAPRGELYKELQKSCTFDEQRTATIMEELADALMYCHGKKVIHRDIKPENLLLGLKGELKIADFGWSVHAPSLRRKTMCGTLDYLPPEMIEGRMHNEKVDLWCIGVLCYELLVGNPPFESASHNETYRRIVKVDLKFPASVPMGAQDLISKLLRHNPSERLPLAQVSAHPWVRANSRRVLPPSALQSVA
Text: (§2) Disparate replicates were eliminated from the analysis.

[4] = target: non-receptor tyrosine kinase BRK (Homo sapiens, UniProt Q13882); experiment: Kinase panel screen at 500 nM: BRK; format: biochemical; settings: 500 nM compound, 10 μM ATP
non-receptor tyrosine kinase BRK, sequence (Q13882 whole entry): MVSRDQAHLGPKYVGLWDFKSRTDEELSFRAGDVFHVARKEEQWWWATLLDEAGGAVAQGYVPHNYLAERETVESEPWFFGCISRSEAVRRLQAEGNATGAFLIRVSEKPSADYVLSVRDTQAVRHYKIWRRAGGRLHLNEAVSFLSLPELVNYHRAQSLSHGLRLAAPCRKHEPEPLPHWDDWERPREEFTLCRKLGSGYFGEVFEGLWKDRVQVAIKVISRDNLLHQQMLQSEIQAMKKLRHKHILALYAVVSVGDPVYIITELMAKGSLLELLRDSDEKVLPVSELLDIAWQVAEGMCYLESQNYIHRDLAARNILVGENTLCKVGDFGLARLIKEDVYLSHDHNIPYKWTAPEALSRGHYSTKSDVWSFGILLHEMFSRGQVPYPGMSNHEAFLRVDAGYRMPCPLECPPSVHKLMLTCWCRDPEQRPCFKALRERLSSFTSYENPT
Text: as §2

[5] = test system: panel of 300 protein kinases; experiment: Kinase selectivity across panel of 300 kinases (Gini coefficient); format: biochemical, human; settings: 500 nM
Description: as §2
The data were analyzed for compounds that inhibit Ack1. […] Inhibitor selectivity was quantitatively assessed using the Gini coefficient (Piotr P et al. (2007) J. Med. Chem., 50:5773-9; and, Lynette A et al. (2009) J. Chem. Biol. 2:131-51).

[6] = test system: Aurora; settings: Heron et al. 2006; cited from earlier work
[7] = test system: Aurora; settings: Heron et al. 2006; cited from earlier work; remark: listed apart in the source
[8] = target: T1, Ack1; experiment: Kinase panel screen at 500 nM: Ack1; format: biochemical; parameters: only the kinase domain of Ack1 and a limited additional region C-terminal (amino acids 110-476); settings: 500 nM compound, 10 μM ATP; for inhibition at 0.5 µM: duplicate, read-out: inhibition of Ack1 catalytic activity
Target sequence in this assay (Q07912 110-476): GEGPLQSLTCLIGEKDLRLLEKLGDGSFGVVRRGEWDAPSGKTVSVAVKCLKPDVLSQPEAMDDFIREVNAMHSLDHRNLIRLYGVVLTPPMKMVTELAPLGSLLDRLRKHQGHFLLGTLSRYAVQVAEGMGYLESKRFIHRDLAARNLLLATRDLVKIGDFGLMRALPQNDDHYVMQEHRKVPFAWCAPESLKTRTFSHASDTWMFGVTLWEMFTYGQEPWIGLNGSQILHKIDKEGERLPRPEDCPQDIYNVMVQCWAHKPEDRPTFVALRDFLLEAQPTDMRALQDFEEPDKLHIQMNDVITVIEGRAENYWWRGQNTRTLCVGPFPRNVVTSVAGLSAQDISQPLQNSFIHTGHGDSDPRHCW
Description: Each inhibitor was tested in duplicate at 500 nM against each kinase using radiolabeled ATP (10 μM total ATP) and a peptide or protein substrate.

[9] = target: T2, IKK-2 (Homo sapiens, UniProt O14920); experiment: Kinase panel screen at 500 nM: IKK-2; format: biochemical; settings: 500 nM compound, 10 μM ATP
T2 sequence (O14920 1-756): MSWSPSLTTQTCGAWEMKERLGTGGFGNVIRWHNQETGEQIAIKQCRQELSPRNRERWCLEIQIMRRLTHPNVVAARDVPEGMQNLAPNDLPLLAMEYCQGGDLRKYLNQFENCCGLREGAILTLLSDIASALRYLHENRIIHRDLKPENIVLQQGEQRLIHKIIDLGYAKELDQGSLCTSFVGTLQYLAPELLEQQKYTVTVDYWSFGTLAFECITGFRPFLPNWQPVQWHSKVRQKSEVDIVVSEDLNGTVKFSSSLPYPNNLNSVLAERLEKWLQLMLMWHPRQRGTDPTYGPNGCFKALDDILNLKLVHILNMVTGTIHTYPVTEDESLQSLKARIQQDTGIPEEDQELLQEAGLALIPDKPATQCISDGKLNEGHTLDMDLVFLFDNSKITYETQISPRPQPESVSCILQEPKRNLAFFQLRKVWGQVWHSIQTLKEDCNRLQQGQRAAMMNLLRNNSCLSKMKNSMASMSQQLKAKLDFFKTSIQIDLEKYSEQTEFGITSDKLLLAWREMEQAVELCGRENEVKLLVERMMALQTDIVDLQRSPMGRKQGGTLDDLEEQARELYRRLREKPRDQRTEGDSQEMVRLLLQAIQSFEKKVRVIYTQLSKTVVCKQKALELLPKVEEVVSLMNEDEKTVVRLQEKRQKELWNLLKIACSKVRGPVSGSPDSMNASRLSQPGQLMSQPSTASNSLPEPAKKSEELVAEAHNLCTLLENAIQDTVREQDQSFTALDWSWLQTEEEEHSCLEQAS
Text: (§3) To directly test the kinase selectivity of a large number of established kinase inhibitors, high throughput kinase assays were employed against a panel of ^˜300 recombinant human protein kinases. An economical method based on conventional filter-binding assays was used at a nanoliter scale using radiolabeled ATP that directly measures kinase catalytic activity toward a polypeptide and/or protein substrate. […] The library of inhibitors comprises 160 pure compounds known to inhibit kinases representing all major protein kinase families, as well as a limited number of compounds that were not developed to target protein kinases (FIG. 1A).
(§4) The kinase panel tested represents all major human protein kinase. For simplicity, all compounds were tested at a concentration of 0.5 μM in the presence of 10 μM ATP.
(§5) Each kinase-inhibitor pair was tested in duplicate and results were expressed as percent remaining kinase activity compared to solvent (DMSO) control reactions. Disparate replicates were eliminated from the analysis.
(§6) As described above, a large-scale parallel screening of a collection of 160 known kinase inhibitors was conducted against a panel of 294-300 recombinant human protein kinases. Goals included the identification of novel inhibitor scaffolds for new kinase targets and the revelation of the target specificities of this panel of research compounds. […]

[10] = target: T3, FLT3 (Homo sapiens, UniProt P36888); experiment: Kinase panel screen at 500 nM: FLT3; format: biochemical; settings: 500 nM compound, 10 μM ATP
T3 sequence (P36888 27-993): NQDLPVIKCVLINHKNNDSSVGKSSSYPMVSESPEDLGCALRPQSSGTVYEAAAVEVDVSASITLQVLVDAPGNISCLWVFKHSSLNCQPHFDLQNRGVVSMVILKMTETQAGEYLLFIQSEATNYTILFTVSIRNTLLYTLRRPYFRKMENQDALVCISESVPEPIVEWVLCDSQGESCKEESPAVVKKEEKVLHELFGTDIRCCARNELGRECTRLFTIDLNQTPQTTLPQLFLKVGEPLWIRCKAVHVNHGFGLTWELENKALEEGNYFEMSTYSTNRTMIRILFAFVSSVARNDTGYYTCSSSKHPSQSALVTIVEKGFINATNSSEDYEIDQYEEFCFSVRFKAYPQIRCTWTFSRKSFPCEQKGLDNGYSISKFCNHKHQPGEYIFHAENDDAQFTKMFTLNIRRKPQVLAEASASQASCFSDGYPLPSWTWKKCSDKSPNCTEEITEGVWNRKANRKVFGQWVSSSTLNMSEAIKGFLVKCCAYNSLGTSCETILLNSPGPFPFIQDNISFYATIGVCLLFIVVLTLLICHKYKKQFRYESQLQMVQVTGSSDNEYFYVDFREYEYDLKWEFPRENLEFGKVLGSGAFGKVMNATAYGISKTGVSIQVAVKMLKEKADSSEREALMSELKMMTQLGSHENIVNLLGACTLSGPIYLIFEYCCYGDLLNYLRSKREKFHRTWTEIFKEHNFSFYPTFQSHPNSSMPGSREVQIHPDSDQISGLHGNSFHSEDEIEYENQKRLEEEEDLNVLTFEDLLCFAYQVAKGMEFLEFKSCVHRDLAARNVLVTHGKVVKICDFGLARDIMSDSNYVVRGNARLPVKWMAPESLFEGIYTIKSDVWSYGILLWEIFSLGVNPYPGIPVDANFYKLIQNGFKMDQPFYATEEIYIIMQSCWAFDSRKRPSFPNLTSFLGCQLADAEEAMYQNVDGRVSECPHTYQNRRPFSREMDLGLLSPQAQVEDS
Text: as §2

[11] = test system: JAK1/2; experiment: Kinase panel screen at 500 nM: JAK1/2; format: biochemical, human; settings: 500 nM compound, 10 μM ATP
Text: as §3, §4, §5, §6

[12] = target: RET (Homo sapiens, UniProt P07949); experiment: Kinase panel screen at 500 nM: RET; format: biochemical; settings: 500 nM compound, 10 μM ATP
RET, sequence (P07949 29-1114): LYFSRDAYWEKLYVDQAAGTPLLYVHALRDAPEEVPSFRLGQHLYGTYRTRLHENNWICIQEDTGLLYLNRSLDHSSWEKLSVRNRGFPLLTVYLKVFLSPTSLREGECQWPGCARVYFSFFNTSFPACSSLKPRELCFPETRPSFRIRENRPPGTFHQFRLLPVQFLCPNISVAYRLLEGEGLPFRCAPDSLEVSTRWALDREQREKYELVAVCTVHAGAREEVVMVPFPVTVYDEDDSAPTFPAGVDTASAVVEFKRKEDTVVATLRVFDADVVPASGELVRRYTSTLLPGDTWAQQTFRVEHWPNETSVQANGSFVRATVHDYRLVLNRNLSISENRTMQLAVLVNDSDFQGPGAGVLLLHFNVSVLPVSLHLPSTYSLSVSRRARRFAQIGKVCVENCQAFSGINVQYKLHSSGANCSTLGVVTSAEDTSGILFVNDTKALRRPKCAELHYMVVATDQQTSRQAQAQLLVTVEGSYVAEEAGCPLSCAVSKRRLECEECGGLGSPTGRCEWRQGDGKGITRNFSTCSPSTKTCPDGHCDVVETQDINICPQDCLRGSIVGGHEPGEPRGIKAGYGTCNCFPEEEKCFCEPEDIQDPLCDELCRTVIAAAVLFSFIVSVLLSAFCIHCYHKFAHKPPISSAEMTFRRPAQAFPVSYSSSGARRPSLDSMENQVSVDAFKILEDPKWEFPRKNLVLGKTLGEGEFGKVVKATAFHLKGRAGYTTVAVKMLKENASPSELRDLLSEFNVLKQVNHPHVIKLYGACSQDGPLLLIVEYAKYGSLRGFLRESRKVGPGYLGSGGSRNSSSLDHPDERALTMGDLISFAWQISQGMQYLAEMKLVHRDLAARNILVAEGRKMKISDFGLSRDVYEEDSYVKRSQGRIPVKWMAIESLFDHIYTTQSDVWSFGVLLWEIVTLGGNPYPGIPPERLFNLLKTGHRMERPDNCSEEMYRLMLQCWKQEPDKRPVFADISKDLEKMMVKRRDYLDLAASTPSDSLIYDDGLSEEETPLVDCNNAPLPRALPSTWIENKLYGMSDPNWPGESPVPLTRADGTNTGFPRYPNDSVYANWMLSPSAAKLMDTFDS
Text: as §2

[13] = target: Tyk2 (Homo sapiens, UniProt P29597); experiment: Kinase panel screen at 500 nM: Tyk2; format: biochemical; settings: 500 nM compound, 10 μM ATP
Tyk2, sequence (P29597 whole entry): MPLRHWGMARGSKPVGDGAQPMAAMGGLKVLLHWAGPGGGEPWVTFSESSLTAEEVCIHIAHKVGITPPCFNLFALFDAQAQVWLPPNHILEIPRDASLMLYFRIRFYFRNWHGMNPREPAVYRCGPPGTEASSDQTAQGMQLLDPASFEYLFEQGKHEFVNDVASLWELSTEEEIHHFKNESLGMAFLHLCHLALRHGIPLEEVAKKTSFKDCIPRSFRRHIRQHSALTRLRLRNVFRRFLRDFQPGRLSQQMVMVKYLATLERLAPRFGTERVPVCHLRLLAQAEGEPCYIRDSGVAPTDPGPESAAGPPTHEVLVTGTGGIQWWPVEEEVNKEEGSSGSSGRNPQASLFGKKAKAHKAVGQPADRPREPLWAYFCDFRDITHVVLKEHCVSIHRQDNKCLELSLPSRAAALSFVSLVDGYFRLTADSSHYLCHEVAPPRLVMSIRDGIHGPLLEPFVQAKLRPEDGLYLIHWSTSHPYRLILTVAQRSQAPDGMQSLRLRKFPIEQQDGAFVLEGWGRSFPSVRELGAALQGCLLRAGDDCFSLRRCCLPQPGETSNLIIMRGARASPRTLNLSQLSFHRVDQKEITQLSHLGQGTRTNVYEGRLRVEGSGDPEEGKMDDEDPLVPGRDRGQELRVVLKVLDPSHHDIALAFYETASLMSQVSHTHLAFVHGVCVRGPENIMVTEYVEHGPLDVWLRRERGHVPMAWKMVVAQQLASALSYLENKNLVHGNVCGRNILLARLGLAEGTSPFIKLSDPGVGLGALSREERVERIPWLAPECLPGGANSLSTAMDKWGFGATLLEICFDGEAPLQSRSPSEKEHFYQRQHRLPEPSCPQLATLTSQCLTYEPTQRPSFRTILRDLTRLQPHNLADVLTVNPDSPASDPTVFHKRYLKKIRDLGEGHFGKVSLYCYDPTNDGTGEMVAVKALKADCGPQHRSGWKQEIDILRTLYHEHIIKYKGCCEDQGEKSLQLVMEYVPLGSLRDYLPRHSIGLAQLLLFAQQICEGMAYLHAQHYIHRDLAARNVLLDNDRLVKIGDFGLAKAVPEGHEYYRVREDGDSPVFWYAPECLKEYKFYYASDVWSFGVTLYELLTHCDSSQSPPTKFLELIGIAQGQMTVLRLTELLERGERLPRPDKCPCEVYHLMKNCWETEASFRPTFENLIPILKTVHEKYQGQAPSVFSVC
Text: as §2

## COc1cc2c(Nc3ccc(NC(=O)c4ccccc4)cc3)ncnc2cc1OCCCN1CCOCC1 [Compound 1.1]
[1]; data not shown
  in vitro Ack1 activity compared to compound 1: comparable in vitro activity to compound 1
[2]
  inhibition of Ack1 autophosphorylation in cells: potently inhibited Ack1 autophosphorylation in cells; also recorded: inhibits Ack1 in cells

## COc1cc2ncnc(Nc3ccc(NC(=O)c4ccccc4)cc3)c2cc1OC [Compound 1]
[3]
  inhibition at 0.5 µM: 75%
[4]
  inhibition at 0.5 µM: > 50%
[1]; dose-response, 10 μM ATP, read-out: IC50 against Ack1 in vitro
  IC50: 5 nM
[2]
  inhibition of Ack1 autophosphorylation in cells: did not reduce Ack1 autophosphorylation
[5]
  kinase selectivity for Ack1 over other kinases: unusually selective
[6]
  cellular efficacy against Aurora: poor cellular efficacy
[7]
  in vitro activity against Aurora: good in vitro activity
[8]
  inhibition at 0.5 µM: 95%

## NC(=O)Nc1sc(-c2ccc(F)cc2)cc1C(N)=O [Compound 3]
[9]
  inhibition at 0.5 µM: 91%
[10]
  inhibition of catalytic activity of FLT3: partial inhibition
[11]
  inhibition of catalytic activity of JAK1/2: partial inhibition
[12]
  inhibition of catalytic activity of RET: partial inhibition
[13]
  inhibition of catalytic activity of Tyk2: partial inhibition
[8]
  inhibition at 0.5 µM: 94%

## CN[C@@H]1C[C@H]2O[C@@](C)([C@@H]1OC)n1c3ccccc3c3c4c(c5c6ccccc6n2c5c31)C(=O)NC4 [staurosporine, reference compound]
[8]
  inhibition of Ack1 in the screen: inhibited Ack1 in addition to many other kinases

Source: patent US8658655B2, “Inhibition of activated cdc42-associated kinase 1” (Fox Chase Cancer Center, priority 2011, dated 2014)
